For one molecule, Activity results are on record in ChEMBL document CHEMBL1149376, “Sulfamoyl-4-oxoquinoline-3-carboxamides: novel potentiators of defective DeltaF508-cystic fibrosis transmembrane conductance regulator chloride channel gating” (Bioorg Med Chem Lett, 2006).

The assay concerns the target Cystic fibrosis transmembrane conductance regulator (Homo sapiens) (UniProt P13569). The assay can be described thus: Potentiation of deltaF508 mutated CFTR dependent iodide influx at 0.1 uM. The format is functional.

Cystic fibrosis transmembrane conductance regulator (Homo sapiens), sequence (P13569 whole entry, looked up): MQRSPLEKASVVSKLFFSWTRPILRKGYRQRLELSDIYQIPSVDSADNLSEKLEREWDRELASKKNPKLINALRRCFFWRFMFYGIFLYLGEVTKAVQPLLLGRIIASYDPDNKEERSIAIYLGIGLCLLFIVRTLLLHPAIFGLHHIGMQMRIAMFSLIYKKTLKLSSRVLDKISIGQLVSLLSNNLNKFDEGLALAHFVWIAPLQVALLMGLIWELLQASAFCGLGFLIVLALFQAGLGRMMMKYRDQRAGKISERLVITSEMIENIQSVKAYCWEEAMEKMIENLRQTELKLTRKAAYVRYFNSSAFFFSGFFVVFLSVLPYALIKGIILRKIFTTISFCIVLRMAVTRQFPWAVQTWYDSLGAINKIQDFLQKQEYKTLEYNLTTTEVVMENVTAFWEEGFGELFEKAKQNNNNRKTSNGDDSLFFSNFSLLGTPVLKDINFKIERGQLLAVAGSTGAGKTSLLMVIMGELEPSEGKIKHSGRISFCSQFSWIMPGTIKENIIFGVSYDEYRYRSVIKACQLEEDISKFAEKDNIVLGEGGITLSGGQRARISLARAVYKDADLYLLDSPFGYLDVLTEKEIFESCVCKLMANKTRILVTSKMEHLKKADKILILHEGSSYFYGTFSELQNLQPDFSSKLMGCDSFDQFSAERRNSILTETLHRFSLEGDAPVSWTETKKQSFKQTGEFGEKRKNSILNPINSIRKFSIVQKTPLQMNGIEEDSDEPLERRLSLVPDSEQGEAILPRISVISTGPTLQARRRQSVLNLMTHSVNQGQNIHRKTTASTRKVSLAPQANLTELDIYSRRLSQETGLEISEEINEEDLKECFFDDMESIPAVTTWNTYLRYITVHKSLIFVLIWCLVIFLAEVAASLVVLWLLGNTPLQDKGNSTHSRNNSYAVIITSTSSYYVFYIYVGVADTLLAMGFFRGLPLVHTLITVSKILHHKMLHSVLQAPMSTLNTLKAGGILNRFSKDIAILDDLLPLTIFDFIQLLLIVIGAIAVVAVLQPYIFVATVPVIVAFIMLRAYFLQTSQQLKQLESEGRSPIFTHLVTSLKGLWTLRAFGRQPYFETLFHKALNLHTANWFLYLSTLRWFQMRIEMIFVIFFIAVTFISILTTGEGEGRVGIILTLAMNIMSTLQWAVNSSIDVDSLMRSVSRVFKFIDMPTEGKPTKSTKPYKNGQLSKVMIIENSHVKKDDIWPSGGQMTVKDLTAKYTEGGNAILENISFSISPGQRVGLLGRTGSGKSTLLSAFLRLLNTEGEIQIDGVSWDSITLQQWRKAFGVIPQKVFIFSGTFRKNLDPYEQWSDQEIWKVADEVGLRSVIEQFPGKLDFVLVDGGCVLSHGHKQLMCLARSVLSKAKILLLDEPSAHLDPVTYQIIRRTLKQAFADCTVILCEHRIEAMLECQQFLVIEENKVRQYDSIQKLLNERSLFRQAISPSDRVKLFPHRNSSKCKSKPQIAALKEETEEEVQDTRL

For the molecule `CCN(c1ccccc1)S(=O)(=O)c1ccc2ncc(C(=O)NCc3ccccc3OC)c(O)c2c1`, the Activity stood at 50%.
